Test results as given in PMC10579241, “Impact of trifluoromethyl and sulfonyl groups on the biological activity of novel aryl-urea derivatives: synthesis, in-vitro, in-silico and SAR studies” (Scientific Reports, 2023).
Values after ≈ are worked out from the molar mass of the structure shown. Like-named read-outs stand apart in the source and are kept apart here. Marks after values point to notes of the source that are not given here.

Key:
[1] = tested on: Bacillus mycoides; assay: microbe, parasite or virus in culture; format: cell-based
[2] = tested on: PALB2; assay: qRT-PCR, PALB2 in PACA2 cells; format: cell-based, human; conditions: versus negative untreated sample
[3] = tested on: FASN; assay: qRT-PCR, FASN in HCT116 cells; format: cell-based, human; conditions: versus negative samples
[4] = tested on: osteosarcoma cell line (HOS); assay: cells; format: cell-based; conditions: 48 h; for IC50: MTT
[5] = tested on: PACA2; assay: DNA damage, comet assay, PACA2; format: cell-based, human
[6] = tested on: BRCA1; assay: qRT-PCR, BRCA1 in PC3 cells; format: cell-based, human; conditions: versus negative samples
[7] = tested on: Escherichia coli; assay: MIC by serial dilution (agar wells), E. coli; format: cell-based
[8] = tested on: pancreatic cancer cell line (PACA2); assay: cells; format: cell-based; conditions: Homo sapiens, PaCa-2, 48 h
[9] = tested on: skin cancer (A431); assay: cells; format: cell-based; conditions: Homo sapiens, A-431, 100 μg/mL, 48 h
[10] = tested on: prostate cancer (PC3); assay: cells; format: cell-based; conditions: Homo sapiens, 48 h
[11] = tested on: TP53; assay: qRT-PCR, TP53 in HCT116 cells; format: cell-based, human; conditions: versus negative samples
Experimental: RNA was extracted from pancreas, prostate, lung and liver cell lines using a total RNA purification kit (Qiagen, Hilden, Germany) according to the manufacturer's instructions. An aliquot of RNA was diluted in RNase-free water to estimate RNA quantity. Aliquots were used immediately for reverse transcription (RT). cDNA synthesis was performed on extracted RNA, which was treated with DNase (Invitrogen, Germany) to remove any possible DNA contamination. The DNase-treated RNA was reverse transcribed into first-strand cDNA using the RevertAid First Strand cDNA Synthesis kit (Fermantas) according to the manufacturer's instructions. Determination of the pancreas, prostate, lung and liver cell line cDNA copy number was carried out using StepOne™ Real-Time PCR System from Applied Biosystems (Thermo Fisher Scientific, Waltham, MA USA). Gene expressions were detected by real-time PCR, which was performed using the Rotor-Gene Q system (Qiagen Company). A 25 µL reaction mixture consisted of 12.5 µL SYBR® Premix Ex TaqTM (TaKaRa, Biotech. Co. Ltd.), 0.5 µL of each primer (10 PMole) (Table 1), 1 µL cDNA (50 ng) and 10.5 µL RNase free water. The optimum amplification conditions were chosen empirically according to each tested gene. Generally, the amplification conditions include initial incubation (95.0 °C for 3 min), then 40 cycles of amplification with denaturation (95.0 °C for 15 s), annealing (55.0 °C for 30 s) and extension (72.0 °C for 30 s) steps then 71 cycles which started at 60.0 °C and then increased about 0.5 °C every 10 s up to 95.0 °C. Mean cycle threshold (Ct) values of triplicate samples are used for analysis. The Ct value indicates the fractional cycle number at which the amount of amplified target reaches a fixed threshold. Data from real-time PCR were analyzed using 2^−∆∆Ct method[38]–[40]. Data were represented as the fold change in target gene expression normalized to a House-Keeping gene (HKG) and relative to the control. β-actin was used as a HKG to normalize input RNA amount, RNA quality and reverse transcription efficiency.

[12] = tested on: Candida albicans; assay: Agar well diffusion, C. albicans; format: cell-based
[13] = tested on: PC3; assay: DNA fragmentation assay, PC3; format: cell-based, human
[14] = tested on: CDKN2A; assay: qRT-PCR, CDKN2A in PACA2 cells; format: cell-based, human; conditions: versus negative untreated sample
[15] = tested on: Bacillus mycoides; assay: microbe, parasite or virus in culture; format: cell-based; remark: listed apart in the source
[16] = tested on: normal skin fibroblast cell line (BJ1); assay: cells; format: cell-based; conditions: Homo sapiens, Skin fibroblast, MTT, 48 h
[17] = in vitro; format: cell-based; conditions: human, BJ1 normal skin fibroblast cells, 100 μg/mL
[18] = tested on: human lung carcinoma (A549); assay: cells; format: cell-based
[19] = tested on: HCT116; assay: DNA damage, comet assay, HCT116; format: cell-based, human
[20] = tested on: hepatocellular carcinoma cell line (HePG2); assay: cells; format: cell-based; conditions: Homo sapiens, 48 h
[21] = tested on: BRCA2; assay: qRT-PCR, BRCA2 in PC3 cells; format: cell-based, human; conditions: versus negative samples
[22] = tested on: colon cancer (HCT116); assay: cells; format: cell-based; conditions: Homo sapiens
[23] = read-out: Minimum inhibition concentration (MIC)

SMILES: Cc1ccc(S(=O)(=O)NC(=O)Nc2ccc(C(F)(F)F)cc2)cc1 [Compound 7, 4-Methyl-N-[(4-{trifluoromethyl}phenyl)carbamoyl]benzenesulfonamide]
- Inhibition zones diameter ([1]; B. mycoides, 200 μL of 10 mg/mL in DMSO in 15 mm holes, overnight 37 °C): 36 ± 1.25 mm
- zone of inhibition at 10000 µg/mL ([1]; Bacillus mycoides, read-out: Inhibition zones diameter): 36 mm
- PALB2 gene expression level [2]: significantly reduced
- FASN gene expression level [3]: suppression
- mortality at 100 µg/mL ([4]; Homo sapiens, 100 μg/mL): 100%
- IC50 ([4]; Homo sapiens): 102 µM
- IC50 [4]: 102.1 ± 0.95 µM
- DNA damaged cells % (mean ± SEM) [5]: 23.52 ± 0.65^a %
- Class 0 (no tail), number of cells ([5]; of 400 cells analyzed): 306
- Class 1 (tail length < diameter of nucleus), number of cells ([5]; of 400 cells analyzed): 35
- Class 2 (tail length between 1 and 2 × the diameter of nucleus), number of cells ([5]; of 400 cells analyzed): 28
- Class 3 (tail length > 2 × the diameter of nucleus), number of cells ([5]; of 400 cells analyzed): 31
- No. of cells, Comets ([5]; of 400 cells analyzed): 94
- BRCA1 gene expression level [6]: decreased significantly
- zone of inhibition at 4.88 µg/mL ([7]; 0.00488 mg/mL, 150 µL in DMSO, 15 mm agar well): 15 mm
- zone of inhibition at 9.75 µg/mL ([7]; 0.00975 mg/mL, 150 µL in DMSO, 15 mm agar well): 16 mm
- zone of inhibition at 19.5 µg/mL ([7]; 0.0195 mg/mL, 150 µL in DMSO, 15 mm agar well): 17 mm
- zone of inhibition at 39.1 µg/mL ([7]; 0.0391 mg/mL, 150 µL in DMSO, 15 mm agar well): 18 mm
- zone of inhibition at 78.1 µg/mL ([7]; 0.0781 mg/mL, 150 µL in DMSO, 15 mm agar well): 19 mm
- zone of inhibition at 156.3 µg/mL ([7]; 0.1563 mg/mL, 150 µL in DMSO, 15 mm agar well): 20 mm
- zone of inhibition at 312.5 µg/mL ([7]; 0.3125 mg/mL, 150 µL in DMSO, 15 mm agar well): 22 mm
- zone of inhibition at 625 µg/mL ([7]; 0.625 mg/mL, 150 µL in DMSO, 15 mm agar well): 23 mm
- zone of inhibition at 1250 µg/mL ([7]; 1.25 mg/mL, 150 µL in DMSO, 15 mm agar well): 25 mm
- zone of inhibition at 2500 µg/mL ([7]; 2.50 mg/mL, 150 µL in DMSO, 15 mm agar well): 26 mm
- zone of inhibition at 5000 µg/mL ([7]; 5.00 mg/mL, 150 µL in DMSO, 15 mm agar well): 27 mm
- zone of inhibition at 10000 µg/mL ([7]; 10.0 mg/mL, 150 µL in DMSO, 15 mm agar well): 28 mm
- MIC [7, 23]: 4.88 µg/mL (≈ 13.6 µM)
- mortality at 100 µg/mL ([8]; 100 μg/mL): 100%
- IC50 ([8]; MTT): 44.4 ± 0.57 µM
- mortality at 100 µg/mL [9]: 55.4 ± 1.25%
- mortality at 100 µg/mL ([10]; 100 μg/mL): 100%
- IC50 ([10]; MTT): 91.3 ± 0.28 µM
- TP53 gene expression level [11]: suppression
- Inhibition zones diameter ([12]; C. albicans, 200 μL of 10 mg/mL in DMSO in 15 mm holes, overnight 37 °C): 37 ± 1.20 mm
- zone of inhibition at 10000 µg/mL ([12]; Candida albicans, read-out: Inhibition zones diameter): 37 mm
- Change (DNA fragmentation versus untreated cells) [13]: 24.5
- DNA fragmentation % M ± SEM ([13]; IC50 concentration, 24 h): 36.1 ± 0.60^a %
- Inhibition ([13]; doxorubicin = 0.0): 21.89
- CDKN2A gene expression level [14]: significantly reduced
- zone of inhibition at 4.88 µg/mL ([15]; read-out: Inhibition zone): 0 mm
- zone of inhibition at 9.75 µg/mL ([15]; read-out: Inhibition zone): 15 mm
- zone of inhibition at 19.5 µg/mL ([15]; read-out: Inhibition zone): 15 mm
- zone of inhibition at 39.1 µg/mL ([15]; read-out: Inhibition zone): 16 mm
- zone of inhibition at 78.1 µg/mL ([15]; read-out: Inhibition zone): 16 mm
- zone of inhibition at 156.3 µg/mL ([15]; read-out: Inhibition zone): 18 mm
- zone of inhibition at 312.5 µg/mL ([15]; read-out: Inhibition zone): 20 mm
- zone of inhibition at 625 µg/mL ([15]; read-out: Inhibition zone): 24 mm
- zone of inhibition at 1250 µg/mL ([15]; read-out: Inhibition zone): 26 mm
- zone of inhibition at 2500 µg/mL ([15]; read-out: Inhibition zone): 27 mm
- zone of inhibition at 5000 µg/mL ([15]; read-out: Inhibition zone): 28 mm
- zone of inhibition at 10000 µg/mL ([15]; read-out: Inhibition zone): 29 mm
- MIC [15, 23]: 9.75 µg/mL (≈ 27.2 µM)
- IC50 [16]: 48.8 ± 0.26 µM
- mortality at 48 h, 100 µg/mL [17]: 12.3 ± 1.12%
- mortality at 100 µg/mL ([18]; A549, 48 h, 100 μg/mL): 100%
- IC50 ([18]; MTT, 48 h): 86.5 ± 1.4 µM
- DNA damaged cells % (mean ± SEM) [19]: 25.56 ± 0.66^a %
- Class 0 (no tail), number of cells ([19]; of 400 cells analyzed): 298
- Class 1 (tail length < diameter of nucleus), number of cells ([19]; of 400 cells analyzed): 29
- Class 2 (tail length between 1 and 2 × the diameter of nucleus), number of cells ([19]; of 400 cells analyzed): 38
- Class 3 (tail length > 2 × the diameter of nucleus), number of cells ([19]; of 400 cells analyzed): 35
- No. of cells, Comets ([19]; of 400 cells analyzed): 102
- mortality at 100 µg/mL ([20]; 100 μg/mL): 100%
- IC50 ([20]; MTT): 97.4 ± 1.11 µM
- BRCA2 gene expression level [21]: decreased significantly
- mortality at 100 µg/mL ([22]; HCT-116, 48 h, 100 μg/mL): 100%
- IC50 ([22]; HCT-116, MTT, 48 h): 93.5 ± 1.4 µM
